Assay results as given in patent US20030228988A1, “Ozone solutions” (Otre AB, priority 2002, published 2003).
Where two headings read alike, the source gives them in different places.

Key:
[1] = Ozone stability in the presence of different surfactants (ozone electrode); type: physicochemical; conditions: ozone approximately 6 ppm, surfactant approximately 0.1 mM, approximately the same pH
Procedure: Deionised water was used in all aqueous solutions. All experiments were made at room temperature, ˜23° C. The variation of the temperature between the different experiments was relatively small and should not have any significant effect on the outcome. All tests were made at least twice in order to verify the reproducibility. […] Magnetic stirrer was used to obtain a homogeneous solution. […] The concentration of the surfactants was approximately 0.1 mM. […] The solution was filtered to remove the formed precipitate, AgBr.

[2] = Ozone stability in the presence of different concentrations of SDS; type: physicochemical; conditions: 200 mM vs 0.1 mM SDS, ozone approximately 6 ppm
Procedure: One of the surfactants, SDS, was tested at two different concentrations: Low concentration (0.1 mM), where the surfactant exists […], and high concentration (200 mM), where the surfactant exists in the form of both micelles and linear (paraffinic) chains. […] However, in order to obtain these states the surfactant solution has to be heated.
Magnetic stirrer was used to obtain a homogeneous solution.
SDS was added directly to the aqueous ozone solution, yielding solutions having concentrations of 0.1 mM and 200 mM with respect to SDS The result is seen in FIG. 4, namely that the higher concentration of SDS increases the lifetime of ozone by a factor 5 compared with the lower concentration.

[3] = Oxidation of organic acids by ozone, 13C NMR and IR before and after ozone treatment; type: physicochemical; conditions: 0.1M acid bubbled with ozone for five hours
Procedure: The aqueous solutions of the acids were analysed using ^13C NMR and IR spectroscopy before and after treatment with ozone.
In order to verify that the organic acids had not been oxidised by ozone an additional test was made 300 ml of an aqueous solution of acid (0.1M, 30×10^−3 mol) was bubbled with ozone for five hours. The gaseous concentration of ozone was ˜100 g/m^3. The airflow was 0 2 l/minute, which gives 1.2 g ozone/h ([…]). The aqueous solutions were analysed using ^13C NMR and IR spectroscopy before and after treatment with ozone. The results are shown in FIGS. 9-12, namely that the peaks in the spectrograms of the pure acid solutions (FIGS. 9 and 11) had not changed their appearance after prolonged treatment with ozone (FIGS. 10 and 12)

[4] = Ozone stability in the presence of acetic and oxalic acid; conditions: for increase of the lifetime of the ozone (factor) compared with pure ozone solution: acid approximately 0.01M, ozone approximately 6 ppm
Procedure: The following procedure was applied in the analysis of ozone concentration. Magnetic stirrer was used to obtain a homogeneous solution. The ozone concentration, pH and temperature were registered every 30 seconds, until ozone no longer could be detected.
An aqueous ozone solution with a concentration of approximately 6 ppm was tapped directly from the ozone generator into a beaker. The ozone electrode was used to register the changes in concentration. Acetic or oxalic acid was added directly to the solution. The concentration of the acids was approximately 0.01M.

Q: For `CCCCCCCCCCCCOS(=O)(=O)[O-].[Na+]` [SDS, sodium dodecyl sulphate], which “increase of the lifetime of ozone compared with a pure ozone solution” value ([1]; ~23° C.) is on record?
A: three to four fold

Q: And the “increase of the lifetime of ozone (factor), higher concentration compared with the lower concentration” value [2]?
A: 5

Q: Which results are given for `O=C(O)C(=O)O` [oxalic acid]?
A: decomposition / reaction of the acid after treatment with ozone (13C NMR, IR) [3]: does not react with ozone; effect on ozone stability ([4]; FIGS. 5 and 6): positive effect on ozone stability; increase of the lifetime of the ozone (factor) compared with pure ozone solution [4]: 2

Q: For `CCCCCCCCCCCCO[C@@H]1O[C@H](CO)[C@@H](O[C@H]2O[C@H](CO)[C@@H](O)[C@H](O)[C@H]2O)[C@H](O)[C@H]1O` [dodecyl b-D-maltoside], which “depletion rate of ozone relative to the depletion rate of pure ozone solution” value [1] is on record?
A: about half

Q: Which results are given for `CC(=O)O` [Acetic acid, acetic acid]?
A: effect on ozone stability [4]: positive effect on ozone stability; increase of the lifetime of the ozone (factor) compared with pure ozone solution [4]: 2
